Legend:
Experiment in all cases: relative viability (nuclei count vs DMSO), 5 days (fraction); higher = more cells survive
[1] = compound: CC1=CC(=CC=C1)NC2=NC(=CS2)C3=CC=NC=C3 + Cc1nc(Nc2ncc(C(=O)Nc3c(C)cccc3Cl)s2)cc(N2CCN(CCO)CC2)n1 [Dasatinib] (partner 0.075 µM)
Summary of the method: (§1)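 A single step with final 0.05% Triton X-100, 1% formaldehyde and 1 ug/ml Hoechst fixed the cells and stained nuclei 5 days after treatment. Lung cancer cell lines in 1536-well plates had been treated by pin tool the day after seeding with one drug alone or a fixed anchor-drug dose plus five library-drug doses (not always all listed) in √10 steps, and nuclei were counted on 4× images. Relative viability is the ratio of nuclei in treated wells to nuclei in vehicle wells, taken as the median of duplicate plates.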

[2] = compound: Cc1ccc(NC(=O)c2ccc(CN3CCN(C)CC3)cc2)cc1Nc1nc(-c2cccnc2)cs1 [Masitinib] + Nc1nc2[nH]cc(CCc3ccc(C(=O)N[C@@H](CCC(=O)O)C(=O)O)cc3)c2c(=O)[nH]1 [Pemetrexed] (partner 0.2 µM)
Summary of the method: as §1

[3] = compound: Cc1ccc(NC(=O)c2ccc(CN3CCN(C)CC3)cc2)cc1Nc1nc(-c2cccnc2)cs1 [Masitinib] + Cc1cc(Nc2cc(N3CCN(C)CC3)nc(Sc3ccc(NC(=O)C4CC4)cc3)n2)n[nH]1 [Tozasertib] (partner 0.1 µM)
Summary of the method: as §1

[4] = compound: Cc1ccc(NC(=O)c2ccc(CN3CCN(C)CC3)cc2)cc1Nc1nc(-c2cccnc2)cs1 [Masitinib] + CC(C)C[C@H](NC(=O)[C@H](Cc1ccccc1)NC(=O)c1cnccn1)B(O)O [Bortezomib] (partner 0.002 µM)
Summary of the method: as §1

Row | Cell Line | relative viability ([1]; first compound 0.08 µM) | relative viability ([1]; first compound 0.253 µM) | relative viability ([1]; first compound 0.8 µM) | relative viability ([1]; first compound 2.53 µM) | relative viability ([1]; first compound 8 µM) | relative viability ([2]; first compound 0.01 µM) | relative viability ([2]; first compound 0.03162 µM) | relative viability ([2]; first compound 0.1 µM) | relative viability ([2]; first compound 0.3162 µM) | relative viability ([2]; first compound 1 µM) | relative viability ([3]; first compound 0.01 µM) | relative viability ([3]; first compound 0.03162 µM) | relative viability ([3]; first compound 0.1 µM) | relative viability ([3]; first compound 1 µM) | relative viability ([4]; first compound 0.01 µM) | relative viability ([4]; first compound 0.03162 µM) | relative viability ([4]; first compound 0.1 µM) | relative viability ([4]; first compound 0.3162 µM) | relative viability ([4]; first compound 1 µM) | relative viability ([3]; first compound 0.3162 µM)
1 | NCI-H1975 | 0.366 | 0.353 | 0.295 | 0.22 | 0.165 | 0.305 | 0.3 | 0.287 | 0.291 | 0.303 | 0.764 | 0.609 | 0.609 | 0.263 | 0.378 | 0.319 | 0.388 | 0.319 | 0.373 | 
2 | NCI-H1993 | 0.532 | 0.513 | 0.52 | 0.545 | 0.485 | 0.622 | 0.58 | 0.582 | 0.483 | 0.502 | 0.519 | 0.554 | 0.547 | 0.498 | 1.01 |  | 1.21 | 1.03 | 1.03 | 0.593
3 | NCI-H2009 | 0.249 | 0.308 | 0.264 | 0.299 | 0.312 | 1 | 1.01 | 1.1 | 1.09 | 1.01 | 0.762 | 0.71 | 0.744 | 0.658 | 0.666 | 1.1 | 0.887 | 0.894 | 0.939 | 0.817
4 | NCI-H2023 | 0.456 | 0.427 | 0.434 | 0.348 | 0.338 | 0.228 | 0.201 | 0.207 | 0.244 | 0.215 | 0.327 | 0.356 | 0.279 | 0.189 | 0.734 | 0.967 | 0.79 | 0.862 | 0.879 | 0.184
5 | NCI-H2085 | 0.241 | 0.243 | 0.241 | 0.186 | 0.243 | 0.976 | 0.936 | 1.01 | 0.992 | 0.844 | 0.691 | 0.779 | 0.865 | 0.663 | 0.87 | 0.99 | 1.03 | 1.27 | 1.06 | 0.479
6 | NCI-H2087 | 0.67 | 0.804 | 0.742 | 0.778 | 0.796 | 0.642 | 0.666 | 0.66 | 0.555 | 0.703 | 0.317 | 0.22 | 0.239 | 0.236 | 0.544 | 0.741 | 0.756 | 0.958 | 0.779 | 0.211
7 | NCI-H2126 | 0.533 | 0.433 | 0.505 | 0.466 | 0.4 | 0.633 | 0.713 | 0.672 | 0.665 | 0.738 | 0.938 | 0.819 | 0.926 | 0.828 | 1.05 | 1.17 | 1.1 | 1.03 | 1.11 | 0.627
8 | NCI-H2228 | 0.402 | 0.605 | 0.468 | 0.433 | 0.445 | 0.342 | 0.372 | 0.347 | 0.347 | 0.363 | 0.242 | 0.199 | 0.232 | 0.221 | 1.07 | 1.68 | 1.05 | 1.25 | 0.975 | 0.217
9 | NCI-H2347 | 0.274 | 0.301 |  | 0.388 | 0.389 | 0.425 | 0.406 | 0.385 | 0.446 | 0.417 | 0.379 | 0.457 | 0.536 | 0.394 | 0.829 | 1.02 | 0.938 | 0.899 | 0.903 | 0.563
10 | NCI-H2405 | 0.202 | 0.176 | 0.15 | 0.16 | 0.22 | 0.962 | 1.05 | 0.98 | 1.04 | 0.704 | 0.759 | 0.729 | 0.725 | 0.635 | 0.929 | 0.878 | 0.879 | 0.944 | 0.948 | 0.631
11 | NCI-H3122 | 0.78 | 0.821 | 1.05 | 0.819 | 0.77 | 0.175 | 0.196 | 0.193 | 0.201 | 0.191 |  | 0.502 |  | 0.417 | 1.09 | 0.997 | 1.1 | 1.03 | 0.984 | 0.387
12 | PC-3 [JPC-3] | 0.974 | 0.95 | 0.881 | 0.87 | 0.939 | 1.04 | 0.733 | 1.06 | 1.37 | 0.87 | 0.879 | 0.782 | 0.917 | 0.878 | 0.833 | 0.936 | 0.784 | 0.878 | 0.841 | 0.824
13 | PC-14 | 0.237 | 0.247 | 0.27 | 0.225 | 0.178 | 0.137 | 0.144 | 0.13 | 0.12 | 0.141 | 0.5 | 0.563 | 0.512 | 0.478 | 0.786 | 0.878 | 0.857 | 0.84 | 0.846 | 0.482
14 | RERF-LC-KJ | 0.533 | 0.694 | 0.64 | 0.573 | 0.515 | 0.475 | 0.522 | 0.44 | 0.535 | 0.459 | 0.558 | 0.41 | 0.492 | 0.336 | 0.939 | 1 | 1.07 | 1.09 | 1 | 0.465
15 | SK-LU-1 | 0.144 | 0.201 |  | 0.219 | 0.224 | 0.982 | 1 | 1.06 | 0.919 | 1.03 | 0.349 | 0.299 | 0.319 | 0.292 | 1.2 | 1.13 | 1.28 | 1.24 | 0.899 | 0.35
16 | SW 1573 | 0.612 | 0.369 | 0.612 | 0.603 | 0.432 | 0.808 | 0.942 | 0.854 | 0.873 | 0.92 | 0.133 | 0.144 | 0.213 | 0.135 | 1.08 | 0.979 | 1.06 | 0.894 | 1 | 0.15
